From article PMC7377239, “Cardiovascular Effects of Polychlorinated Biphenyls and Their Major Metabolites” (Environmental Health Perspectives, 2020)
Structures can show the parent of a compound that is named as a salt. Where two headings read alike, the source gives them in different places.

How the values were obtained:
[1] = system: iCell cardiomyocytes (human iPSC-derived cardiomyocytes); assay: High-content imaging of cytotoxicity and mitochondrial integrity in iPSC-CMs; assay type: cell-based; conditions: Homo sapiens; for viability at 0.01 µM / activity at 0.01 µM / viability at 0.1 µM / activity at 0.1 µM / viability at 1 µM / activity at 1 µM / viability at 10 µM / activity at 10 µM / viability at 100 µM / activity at 100 µM: Cardiomyocyte, 0.00 µM = 100.00; for viability at 0.1 µM / activity at 0.1 µM: 0.10 µM; for minimal effective concentration: iPSC-CM
How it was run: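 Readouts from high-content images were normalized to vehicle controls containing 0.5% vol/vol DMSO. They were fit to a four-parameter logistic model in R. Points of departure were set using a cutoff of one standard deviation across vehicle control means. Where no concentration–response was seen, the top tested concentration of 100μM was assigned as the no observable adverse effect level.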

HUVECs = assay: High-content imaging cytotoxicity in HUVECs, 24 h; assay type: cell-based, human; conditions: Homo sapiens, HUVEC, 24 h, HUVECs; for viability at 0.01 µM / activity at 0.01 µM / viability at 0.1 µM / activity at 0.1 µM / viability at 1 µM / activity at 1 µM / viability at 10 µM / activity at 10 µM / viability at 100 µM / activity at 100 µM: 0.00 µM = 100.00; for viability at 0.1 µM / activity at 0.1 µM: 0.10 µM; for minimal effective concentration: top concentration 100.00 µM
How it was run: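 Point-of-departure values derive from four-parameter logistic fits of vehicle-normalized imaging phenotypes (Hoechst 33342, MitoTracker Orange, calcein AM). The fits follow 24 h exposure of HUVEC monolayers at 37°C and 5% CO2, with a top tested concentration of 100μM.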

[2] = 24 hr, read-out: huvec.cyto.24hr
[3] = 24 hr, read-out: huvec.mito.24hr
[4] = 24 hr, read-out: huvec.mitoint.24hr
[5] = 24 hr, read-out: huvec.nma.24hr
[6] = 24 hrs, read-out: huvec.tc.24hrs

`O=S(=O)(O)Oc1cc(-c2ccccc2)ccc1Cl` [3-yl PCB 3 sulfate] showed a viability at 0.01 µM ([1]; 1.5 h, read-out: cm.cam.90min) of 100%, an activity at 0.01 µM ([1]; 1.5 h, read-out: cm.mii.90min) of 110% and an activity at 0.01 µM ([1]; 1.5 h, read-out: cm.mito.90min) of 100%. It also gave a viability at 0.01 µM ([1]; 1.5 h, read-out: cm.tc.90min) of 101%, a viability at 0.1 µM ([1]; 1.5 h, read-out: cm.cam.90min) of 97.4% and an activity at 0.1 µM ([1]; 1.5 h, read-out: cm.mii.90min) of 109%. For the same molecule, the activity at 0.1 µM ([1]; 1.5 h, read-out: cm.mito.90min) was 97.4%, the viability at 0.1 µM ([1]; 1.5 h, read-out: cm.tc.90min) was 97.6% and the viability at 1 µM ([1]; 1.5 h, read-out: cm.cam.90min) was 104%. For the same molecule, the activity at 1 µM ([1]; 1.5 h, read-out: cm.mii.90min) was 106%, the activity at 1 µM ([1]; 1.5 h, read-out: cm.mito.90min) was 104% and the viability at 1 µM ([1]; 1.5 h, read-out: cm.tc.90min) was 104%. For the same molecule, the viability at 10 µM ([1]; 1.5 h, read-out: cm.cam.90min) was 106%, the activity at 10 µM ([1]; 1.5 h, read-out: cm.mii.90min) was 98.4% and the activity at 10 µM ([1]; 1.5 h, read-out: cm.mito.90min) was 106%. For the same molecule, the viability at 10 µM ([1]; 1.5 h, read-out: cm.tc.90min) was 106%, the viability at 100 µM ([1]; 1.5 h, read-out: cm.cam.90min) was 104% and the activity at 100 µM ([1]; 1.5 h, read-out: cm.mii.90min) was 108%. For the same molecule, the activity at 100 µM ([1]; 1.5 h, read-out: cm.mito.90min) was 104%, the viability at 100 µM ([1]; 1.5 h, read-out: cm.tc.90min) was 104% and the viability at 0.01 µM ([1]; 24 h, read-out: cm.cam.24hrs) was 87.7%. For the same molecule, the activity at 0.01 µM ([1]; 24 h, read-out: cm.mii.24hrs) was 113%, the activity at 0.01 µM ([1]; 24 h, read-out: cm.mito.24hrs) was 86% and the viability at 0.01 µM ([1]; 24 h, read-out: cm.tc.24hrs) was 88.2%. The viability at 0.1 µM ([1]; 24 h, read-out: cm.cam.24hrs) was 99.9%, the activity at 0.1 µM ([1]; 24 h, read-out: cm.mii.24hrs) was 109% and the activity at 0.1 µM ([1]; 24 h, read-out: cm.mito.24hrs) was 99.5%. The viability at 0.1 µM ([1]; 24 h, read-out: cm.tc.24hrs) was 101%, the viability at 1 µM ([1]; 24 h, read-out: cm.cam.24hrs) was 96.5% and the activity at 1 µM ([1]; 24 h, read-out: cm.mii.24hrs) was 102%. The activity at 1 µM ([1]; 24 h, read-out: cm.mito.24hrs) was 93.7%, the viability at 1 µM ([1]; 24 h, read-out: cm.tc.24hrs) was 96.4% and the viability at 10 µM ([1]; 24 h, read-out: cm.cam.24hrs) was 91.9%. For the same molecule, the activity at 10 µM ([1]; 24 h, read-out: cm.mii.24hrs) was 89.9%, the activity at 10 µM ([1]; 24 h, read-out: cm.mito.24hrs) was 88.6% and the viability at 10 µM ([1]; 24 h, read-out: cm.tc.24hrs) was 92.3%. It also gave a viability at 100 µM ([1]; 24 h, read-out: cm.cam.24hrs) of 96.9%, an activity at 100 µM ([1]; 24 h, read-out: cm.mii.24hrs) of 83.9% and an activity at 100 µM ([1]; 24 h, read-out: cm.mito.24hrs) of 97.6%. For the same molecule, the viability at 100 µM ([1]; 24 h, read-out: cm.tc.24hrs) was 97.8%, the minimal effective concentration ([1]; 1.5 h, read-out: cm.cam.90min POD) was 100 µM and the minimal effective concentration ([1]; 1.5 h, read-out: cm.mii.90min POD) was 100 µM. The minimal effective concentration ([1]; 1.5 h, read-out: cm.mito.90min POD) was 100 µM, the minimal effective concentration ([1]; 1.5 h, read-out: cm.tc.90min POD) was 100 µM and the minimal effective concentration ([1]; 24 h, read-out: cm.cam.24hrs POD) was 100 µM. It also gave a minimal effective concentration ([1]; 24 h, read-out: cm.mii.24hrs POD) of 22.8 µM, a minimal effective concentration ([1]; 24 h, read-out: cm.mito.24hrs POD) of 100 µM and a minimal effective concentration ([1]; 24 h, read-out: cm.tc.24hrs POD) of 100 µM. The viability at 0.01 µM (HUVECs; [2]) was 78.2%, the activity at 0.01 µM (HUVECs; [3]) was 77.8% and the activity at 0.01 µM (HUVECs; [4]) was 93.6%. It also gave an activity at 0.01 µM (HUVECs; [5]) of 96.6%, a viability at 0.1 µM (HUVECs; [2]) of 95.5% and an activity at 0.1 µM (HUVECs; [3]) of 95.5%. The activity at 0.1 µM (HUVECs; [4]) was 110%, the activity at 0.1 µM (HUVECs; [5]) was 102% and the viability at 1 µM (HUVECs; [2]) was 95.1%. The activity at 1 µM (HUVECs; [3]) was 94%, the activity at 1 µM (HUVECs; [4]) was 93.8% and the activity at 1 µM (HUVECs; [5]) was 95.5%. It also gave a viability at 10 µM (HUVECs; [2]) of 91.1%, an activity at 10 µM (HUVECs; [3]) of 89.7% and an activity at 10 µM (HUVECs; [4]) of 80.7%. For the same molecule, the activity at 10 µM (HUVECs; [5]) was 93.3%, the viability at 100 µM (HUVECs; [2]) was 98.8% and the activity at 100 µM (HUVECs; [3]) was 97.9%. For the same molecule, the activity at 100 µM (HUVECs; [4]) was 105%, the activity at 100 µM (HUVECs; [5]) was 96% and the minimal effective concentration (HUVECs; 24 hr, read-out: huvec.cyto.24hr POD) was 100 µM. It also gave a minimal effective concentration (HUVECs; 24 hr, read-out: huvec.mito.24hr POD) of 100 µM, a minimal effective concentration (HUVECs; 24 hr, read-out: huvec.mitoint.24hr POD) of 100 µM and a minimal effective concentration (HUVECs; 24 hr, read-out: huvec.nma.24hr POD) of 100 µM. It also gave a viability at 0.01 µM (HUVECs; [6]) of 78.4%, a viability at 0.1 µM (HUVECs; [6]) of 95.5% and a viability at 1 µM (HUVECs; [6]) of 95.1%. For the same molecule, the viability at 10 µM (HUVECs; [6]) was 91.1%, the viability at 100 µM (HUVECs; [6]) was 98.8% and the minimal effective concentration (HUVECs; 24 hrs, read-out: huvec.tc.24hrs POD) was 100 µM.
